Assay results as given in US20070287672A1, “Macromolecular Gsh-Activiated Glyoxylase I Inhibitors” (priority 2004, published 2007).

Assays:
[1] = system: Murine B16 melanotic melanoma; test: In vitro cytotoxicity, growth inhibition of B16 melanotic melanoma; format: cell-based; details: 72 hours
Protocol: Murine B16 melanotic melanoma was obtained from the DCT Tumor Repository (NCI-Cancer Research and Development Center, Frederick, Md.) and was maintained in RPMI 1640 medium containing L-glutamate (Gibco BRL, Gaithersburg, Md.), supplemented with 10% heat-inactivated fetal calf serum and gentamycin (10 μg/mL), under 37° C. humidified air containing 5% CO2. Under these conditions B16 cells have a doubling time of about 26 hours. For the toxicity studies, cells in logarithmic growth were introduced into 24 well plates at a density of 2×10^4 cells/ml in the absence and presence of drug spanning the IC50 values.
After 72 hours, the cells were washed with Hank's balanced salt solution without Ca^2+, treated with trypsin for 10 minutes at 37° C., concentrated by centrifugation and cell densities determined with a Coulter Counter. Cell viabilities were determined by the trypan blue exclusion method (Kaltenbach et al, Exp. Cell. Res. 15:112-117 (1958)).
Reported IC50 values (mean ±standard deviation of triplicate determinations carried out in three separate assays on different days) were calculated using the Hill equation and the program ADAPT (D'Argenio and Schumitzky, Comput. Methods Programs Biomed. 9:115-134 (1979)).

bovine liver GlxII = target: T1, bovine liver GlxII (Bos taurus, UniProt Q3B7M2); details: cited from earlier work
T1 construct: host or cells: bovine liver

[2] = system: murine leukemia L1210 cells; details: cited from earlier work; for IC50: diethyl ester prodrugs, after 72 hours of incubation, read-out: IC50, growth inhibition of L1210 cells in culture
[3] = potassium phosphate buffer, 25° C., cited from earlier work
[4] = system: several different tumor cell lines; details: in vitro; cited from earlier work
HT29 human colon tumors = details: intravenous administration, tumor-bearing mice; cited from earlier work
[5] = intravenous administration, tumor-bearing mice; cited from earlier work
PC3 prostate tumors = details: intravenous administration, tumor-bearing mice; cited from earlier work
B16 melanotic melanoma = details: intravenous administration, tumor-bearing mice; cited from earlier work

CCCC[S+]([O-])C(=O)N(O)c1ccc(Cl)cc1 (centres unmarked) [Compound 2b, S—(N-4-Chlorophenyl-N-hydroxycarbamoyl)butyl sulfoxide]
IC50 value relative to that of HPMA-8-sulfoxide (P1), fold lower [1]: five to ten-fold lower

N[C@@H](CCC(=O)N[C@@H](CSC(=O)N(O)c1ccccc1)C(=O)NCC(=O)O)C(=O)O [S—(N-phenyl-N-hydroxycarbamoyl)glutathione]
substrate for bovine liver GlxII (bovine liver GlxII): substrates for bovine liver GlxII

CCOC(=O)CNC(=O)C(CSC(=O)N(O)c1ccc(Br)cc1)NC(=O)CCC(N)C(=O)OCC (centres unmarked) [BHG(Et)2]
IC50 [2]: 16 µM

CN(O)C(=O)SC[C@H](NC(=O)CC[C@H](N)C(=O)O)C(=O)NCC(=O)O [S—(N-methyl-N-hydroxycarbamoyl)glutathione]
substrate for bovine liver GlxII (bovine liver GlxII): substrates for bovine liver GlxII

N[C@@H](CCC(=O)N[C@@H](CSC(=O)N(O)c1ccc(Br)cc1)C(=O)NCC(=O)O)C(=O)O [BHG, S—(N-p-bromophenyl-N-hydroxycarbamoyl)glutathione]
substrate for bovine liver GlxII (bovine liver GlxII): substrates for bovine liver GlxII

CCC[S+]([O-])C(=O)N(O)c1ccc(Cl)cc1 (centres unmarked) [Compound 2a, S—(N-4-Chlorophenyl-N-hydroxycarbamoyl)propyl sulfoxide]
IC50 value relative to that of HPMA-8-sulfoxide (P1), fold lower [1]: five to ten-fold lower

CC[S+]([O-])C(=O)N(O)c1ccc(Cl)cc1 (centres unmarked) [Compound 2, S—(N-4-chlorophenyl-N-hydroxycarbamoyl)ethyl sulfoxide]
rate constant k for reaction of GSH with the simple sulfoxide ([3]; 0.1 M (pH 7.5)): 30.7 ± 1.2 M⁻¹ s⁻¹
IC50 value relative to that of HPMA-8-sulfoxide (P1), fold lower [1]: five to ten-fold lower
cytostatic and cytotoxic activity on tumor cell lines [4]: cytostatic and cytotoxic

C/C=C/C(=O)OCC1=CCCCC1=O [Compound 3, 2-crotonyloxymethyl-2-cyclohexenone]
rate constant k for reaction of GSH with the crotonate ester ([3]; 0.1 M (pH 6.5)): 1.13 ± 0.017 M⁻¹ s⁻¹
IC50 value relative to that of HPMA-7 (P4), fold lower [1]: over 7000 fold

CCOC(=O)CNC(=O)C(CSC(=O)N(O)c1ccccc1)NC(=O)CCC(N)C(=O)OCC (centres unmarked) [PHG(Et)2]
IC50 [2]: 63 µM

N[C@@H](CCC(=O)N[C@@H](CSC(=O)N(O)c1ccc(Cl)cc1)C(=O)NCC(=O)O)C(=O)O [CHG, S—(N-p-chlorophenyl-N-hydroxycarbamoyl)glutathione]
substrate for bovine liver GlxII (bovine liver GlxII): substrates for bovine liver GlxII

CCOC(=O)CNC(=O)[C@H](CSC(=O)N(O)c1ccc(Cl)cc1)NC(=O)CC[C@H](N)C(=O)OCC [CHG(Et)2]
inhibition of tumor growth, HT29 human colon tumors (HT29 human colon tumors): inhibits the growth
side effects in short term efficacy studies [5]: did not detect any significant side effects
tissue distribution of the prodrug [5]: appearance of the prodrug in all major organs
IC50 [2]: 5 µM
toxicity to L1210 cells versus normal splenic lymphocytes ([2]; in culture): significantly more toxic to murine leukemia L1210 cells than to normal splenic lymphocytes
inhibition of tumor growth, PC3 prostate tumors (PC3 prostate tumors): inhibits the growth
inhibition of tumor growth, B16 melanotic melanoma (B16 melanotic melanoma): inhibits the growth
